Patent US8394377B2, “Methods for treating cancer using combination therapy” (The Regents of the University of Colorado, priority 2008, dated 2013)

Columns and labels:
Format in all cases: cell-based
[1] = Percent viability of treated MCF7 ADR cells (flow cytometry); details: human, 5 mg/ml DCA, 0.1 mg/ml Etomoxir, or both, time point (24 or 48 hrs) not given
Method: (§1) 1. Cell Culture Conditions: The MCF7 and MCF7 ADR cell lines were purchased from American Type Culture Collection, were thawed, and grown in RPMI 1640 medium supplemented with standard supplements, including 10% fetal calf serum, gentamycin, penicillin, streptomycin, sodium pyruvate, HEPES buffer, 1-glutamine, and 2-ME.
(§2) 2. Methods: Cells were plated into a 12 well plate with 4 mis total volume containing approximately 0.6×10^6/well for MCF7 cells and 0.8×10^6/well for MCF7 ADR cells. Treatment groups included no treatment as control; 5 mg/ml Dichloroacetate; 0.1 mg/ml Etomoxir; Both 5 mg/ml DCA and 0.1 mg/ml Etomoxir.
(§3) The cells were incubated at 37° C. in an atmosphere containing 5% CO2 and approximately 92% humidity. The cells were incubated for 24 and 48 hours. At each time point, the cells from that experimental time were harvested and stained for flow cytometric analysis of cell surface expression of HER-2/neu using anti-human HER-2 Fitc. (BD biosciences, Catalogue #340553).

[2] = Percent viability of treated MCF7 cells (flow cytometry); details: human, 5 mg/ml DCA, 0.1 mg/ml Etomoxir, or both, time point (24 or 48 hrs) not given
Method: as §1, §2, §3

HER-2 on MCF7 ADR cells = assay: Cell surface HER-2 expression by flow cytometry with FITC anti-human HER-2
Method: as §1, §2, §3
Harvested cells were stained using standard fixed staining procedure that called for a 1:5 dilution of Fitc-anti-human HER-2 or isotype control. […] Samples were acquired and analyzed on a Coulter Excel Flow Cytometer. […]
The results in the Figures are expressed in histogram analyses. The Y axis represents cell number of the 5000 live cells versus the X axis which is a reflection of relative Fitc fluorescence. […]

Q: Which viability [1] does the source give for `O=C(O)C(Cl)Cl` [DCA, Dichloroacetate] here?
A: 58%

Q: What about the viability [2] of the same compound?
A: 42%

Q: Which results are given for `CCOC(=O)C1(CCCCCCOc2ccc(Cl)cc2)CO1` (stereo not drawn) [Etomoxir, 2-(6-(4-chlorophenoxy)-hexyl)-oxirane-2-carboxylic acid ethyl ester]?
A: HER-2 expression (HER-2 on MCF7 ADR cells; HER-2 lo/negative MCF7-Adr cells, as shown in the figures): major increase; HER-2 cell surface expression (HER-2 on MCF7 ADR cells; MCF7 ADR cells, 48 hours, 0.1 mg/ml Etomoxir): noticeable Increase; viability [1]: 66%; viability [2]: 78%
